Drawing on patent US7862751B2, “Formulation of fine particles using liquefield or dense gases” (MAP Pharmaceuticals, Inc., priority 2002, dated 2011), this text covers bioavailability, solubility in water and particle size for two compounds.

For series [1] the following is noted: coadministration of cyclosporine; J Clin Oncol 2001; cited from earlier work.
For series [2] the following is noted: cited from earlier work.
A further series in a line: Particle size by SEM. Format: physicochemical. The note with it: processed with CO2 at 190 bar, 50° C. and 25° C.

Experimental for Particle size by SEM: SEM images at 2 different magnifications, namely 100× (FIG. 11a) and 2510× (FIG. 11b), of fenofibrate processed at 50° C. and 190 are shown in FIG. 11.
SEM images were taken, using a Hitachi S4500 electron microscope. The samples were chromium coated for 60 seconds with a current of 125 mA, with a Emitech E4500 coater.

Turning to `CC(=O)O[C@@]12CO[C@@H]1C[C@H](O)[C@@]1(C)C(=O)[C@H](O)C3=C(C)[C@@H](OC(=O)[C@H](O)[C@@H](NC(=O)OC(C)(C)C)c4ccccc4)C[C@@](O)([C@@H](OC(=O)c4ccccc4)[C@H]21)C3(C)C` [docetaxel], the bioavailability result in series [1] is listed as “strongly enhanced”.

Regarding `Cc1ccc(C)c(OCCCC(C)(C)C(=O)O)c1` [gemfibrozil, 5-(2,5-dimethylphenoxy)-2,2-dimethylpentanoic acid], the solubility in water result in series [2] is “very poorly soluble”. In addition, the particle size result in “Particle size by SEM” is recorded as “approximately 5 microns”.
